Results published in US20240150338A1, “COMPOUNDS AND USE THEREOF FOR TREATMENT OF NEURODEGENERATIVE, DEGENERATIVE AND METABOLIC DISORDERS” (University of Florida Research Foundation, Incorporated, priority 2021, published 2024).

Key:
[1] = test system: PK1 neuroblastoma cells exposed to TPrP; experiment: cells; assay type: cell-based; conditions: Neuroblastoma cell, 96 h, read-out: TPrP EC50
[2] = Microsomal stability assay; assay type: in vitro ADME; conditions: 1 mg/ml human hepatic microsomes, 37° C., half-life by LC-MS/MS; yes = stability ≥15 minutes
Description: The metabolic stability of some test compounds was determined in hepatic human and mouse microsomes. The compound was incubated with 1 mg/ml human or mouse hepatic microsomes at 37° C. with continuous shaking. Aliquots were removed at various time points between 5 minutes and 2 hours and acetonitrile was added to quench the reactions and precipitate the proteins. Samples were then centrifuged through 0.45 μm filter plates and half-lives were determined by LC-MS/MS.

Row | Compound | EC50 [1] [nM] | Stabilty in human microsomes ≥ 15 minutes [2]
1 | CNS(=O)(=O)c1ccc(-c2csc(Nc3ccc(S(C)(=O)=O)cc3)n2)cc1 [SR-34964, N-methyl-4-(2-((4-(methylsulfonyl)phenyl)amino)thiazol-4-yl)benzenesulfonamide] | 105 | yes
2 | Cc1cc(-c2csc(Nc3ccc(S(C)(=O)=O)c(F)c3)n2)cc(C)n1 [SR-34974, 4-(2,6-Dimethylpyridin-4-yl)-N-(3-fluoro-4-(methylsulfonyl)phenyl)thiazol-2-amine] | 100 | yes
3 | CS(=O)(=O)c1ccc(Nc2nc(-c3ccnc(Cl)c3)cs2)cc1C(F)(F)F [SR-34982, 4-(2-Chloropyridin-4-yl)-N-(4-(methylsulfonyl)-3-(trifluoromethyl)phenyl)thiazol-2-amine] | 120 | yes
4 | Cc1cc(-c2csc(Nc3ccc(S(C)(=O)=O)c(C(F)(F)F)c3)n2)cc(C)n1 [SR-34984, 4-(2,6-Dimethylpyridin-4-yl)-N-(4-(methylsulfonyl)-3-(trifluoromethyl)phenyl)thiazol-2-amine] | 60 | yes
5 | COc1cc(-c2csc(Nc3ccc(S(C)(=O)=O)c(Cl)c3)n2)ccn1 [SR-34993, N-(3-Chloro-4-(methylsulfonyl)phenyl)-4-(2-methoxypyridin-4-yl)thiazol-2-amine] | 125 | yes
6 | CNS(=O)(=O)c1ccc(-c2csc(Nc3ccc(C(F)(F)F)cc3)n2)cc1 [SR-35726, N-methyl-4-(2-((4-(trifluoromethyl)phenyl)amino)thiazol-4-yl)benzenesulfonamide] | 480 | yes
7 | CNS(=O)(=O)c1ccc(-c2csc(Nc3ccc(CS(C)(=O)=O)cc3)n2)cc1 [SR-35727, N-methyl-4-(2-((4-((methylsulfonyl)methyl)phenyl)amino)thiazol-4-yl)benzenesulfonamide] | 18 | yes
8 | CS(=O)(=O)c1ccc(-c2csc(Nc3ccc(S(N)(=O)=O)cc3)n2)cc1 [SR-35729, 4-((4-(4-(Methylsulfonyl)phenyl)thiazol-2-yl)amino)benzenesulfonamide] | 1.6 | yes
9 | CS(=O)(=O)c1ccc(Nc2nc(-c3ccc(S(C)(=O)=O)cc3)cs2)cc1 [SR-35730, N,4-bis(4-(methylsulfonyl)phenyl)thiazol-2-amine] | 4 | yes
10 | Cc1ccc(-c2csc(Nc3ccc(S(C)(=O)=O)cc3)n2)cc1 [SR-35731, N-(4-(methylsulfonyl)phenyl)-4-(p-tolyl)thiazol-2-amine] | > 500 | yes
11 | CS(=O)(=O)c1ccc(Nc2nc(-c3ccc(C(F)(F)F)cc3)cs2)cc1 [SR-35733, N-(4-(Methylsulfonyl)phenyl)-4-(4-(trifluoromethyl)phenyl)thiazol-2-amine] | > 500 | yes
12 | CNS(=O)(=O)c1ccc(-c2csc(Nc3ccc(S(C)(=O)=O)c(F)c3)n2)cc1 [SR-35735, 4-(2-((3-Fluoro-4-(methylsulfonyl)phenyl)amino)thiazol-4-yl)-N-methylbenzenesulfonamide] | 6 | yes
13 | CNS(=O)(=O)c1ccc(-c2csc(Nc3ccc(S(C)(=O)=O)c(Cl)c3)n2)cc1 [SR-35736, 4-(2-((3-Chloro-4-(methylsulfonyl)phenyl)amino)thiazol-4-yl)-N-methylbenzenesulfonamide] | 5 | yes
14 | Cc1cc(-c2csc(Nc3ccc(CS(C)(=O)=O)cc3)n2)ccn1 [SR-35786, 4-(2-Methylpyridin-4-yl)-N-(4-((methylsulfonyl)methyl)phenyl)thiazol-2-amine] | 14 | yes
15 | COc1cccc(-c2csc(Nc3ccc(S(C)(=O)=O)cc3)n2)c1 [SR-35788, 4-(3-Methoxyphenyl)-N-(4-(methylsulfonyl)phenyl)thiazol-2-amine] | 170 | yes
16 | CC(C)c1ccc(-c2csc(Nc3ccc(S(C)(=O)=O)cc3)n2)cc1 [SR-35789, 4-(4-Isopropylphenyl)-N-(4-(methylsulfonyl)phenyl)thiazol-2-amine] | > 500 | yes
